Here are results for 45 compounds from the Deep4Chem optical property database.

The nature of the series: solvent given as SMILES.

Under “in ClCCl”, `N#Cc1cc(/C=C/c2ccc(N(c3ccccc3)c3ccccc3)cc2)ccc1/C=C/c1ccc(/C=C/c2ccc(N(c3ccccc3)c3ccccc3)cc2)cc1` gave an absorption maximum of 433 nm.

With `CCCCCCN1C(=O)c2cccc3c(-c4ccc([N+](=O)[O-])s4)ccc(c23)C1=O`, the absorption maximum (in ClC(Cl)Cl) is 363 nm.

For the compound `C#CC1CN2CCC1CC2[C@@H](O)c1ccnc2ccc(OC)cc12` (some centres not stated), the absorption maximum (in C1CCOC1) stood at 332 nm; the absorption maximum (in CC#N) is on record as 332 nm; the absorption maximum (in CCCC#N) amounted to 332 nm; the absorption maximum (in Cc1ccccc1) was determined as 332 nm; the absorption maximum (in ClCCl) is recorded as 333 nm.

For `CC1(C)CC(=O)c2c(F)c(F)c(F)c(F)c2N1`, under “in CC#N”, the absorption maximum was 360 nm.

As for `CCCCCCOc1cc(N(CC)CC)ccc1/C=C(\C#N)c1ccc(/C=C/C(=C(C#N)C#N)c2ccc3c(c2)c2ccccc2n3CC)s1`, for the setting “in ClCCl”, the absorption maximum is given as 570 nm.

`CC(C)(C)OC(=O)NC(Cc1ccccc1)C(=O)OCc1ccc2c3cccc4cccc(c5cccc1c52)c43` (configuration not stated): under “in CCO”, the absorption maximum is listed as 440 nm.

For the setting “in CCO”, `CNc1ccc2nc3cc(Cl)c(Cl)cc3nc2c1` registered an absorption maximum of 490 nm.

`Cc1ccc2c(c1)C1(c3ccccc3-c3ccccc31)c1cc(C)ccc1N2c1ccc2c(c1)Sc1ccccc1P2(=S)c1ccccc1` (configuration not stated) came in with an absorption maximum (in Cc1ccccc1) of 311.25 nm.

For `c1ccc2c(c1)CCc1ccccc1N2c1c2ccccc2c(N2c3ccccc3CCc3ccccc32)c2ccccc12`, the absorption maximum (in Cc1ccccc1) worked out at 456 nm.

For `COCCOc1ccc(OCCOC)c(C=O)c1`, the absorption maximum is, setting by setting: (in CC(C)(C)O) 350 nm; (in CC(C)CO) 350 nm; (in CC(C)O) 349 nm; (in CCCCO) 349 nm; (in CCCO) 349 nm; (in CCO) 349 nm. For the same compound, the absorption maximum worked out at 350 nm (in CN(C)C=O); 350 nm (in CNC=O); 348 nm (in CO); 353 nm (in NC=O); 349 nm (in O).

Under “in ClCCl”, `COc1ccc(C2=C3C=C(/C=C/C(=O)OC(C)(C)C)C=[N+]3[B-](F)(F)n3cccc32)cc1` gave an absorption maximum of 536 nm.

Compound `F[B-]1(F)OC(c2ccc(Br)cc2)=Cc2c3ccccc3c3ccccc3[n+]21` yielded an absorption maximum (in ClC(Cl)Cl) of 435 nm.

For the compound `Cc1cc(-c2ccc(C(C)(C)C)cc2)c2nsnc2c1-c1ccc(C(C)(C)C)cc1`, the absorption maximum (in ClCCl) is listed as 376 nm.

For the compound `CN(C)c1ccc(C2=C3C=C(c4ccc(C=O)cc4)S[C@]34c3ccccc3[C@H]2c2ccccc24)cc1`, for the setting “in ClCCl”, the absorption maximum was 464 nm.

In turn, `Clc1nnc(Oc2ccc(N(c3ccc(Br)cc3)c3ccc(Br)cc3)cc2)nn1` yielded an absorption maximum (in ClCCl) of 524 nm.

On to `O=[N+]([O-])c1ccc(C#Cc2ccc([N+](=O)[O-])cc2)cc1`, for which the absorption maximum by setting is: (in CO) 329 nm; (in ClCCl) 335 nm.

In the case of `CC(C)(C)NC(=O)c1cccc2ccc3c4cc(F)ccc4c4ccc(F)cc4c3c12`, where the note is “in ClCCl”, the absorption maximum is listed as 334 nm.

Where the note is “in CO”, `COC(=O)COc1ccc(/C=C/C2=[N+]3C(=C(c4ccc(N(C)C)cc4)c4c(C)cc(C)n4[B-]3(F)F)C(C)=C2)cc1` displayed an absorption maximum of 566 nm.

In turn, `CCCCN1C(=O)c2cc(Oc3ccc(C(C)(C)C)cc3)c3c4c(Oc5ccc(C(C)(C)C)cc5)cc5c(=O)[nH]/c(=C\c6ccc7ccccc7n6)c6cc(Oc7ccc(C(C)(C)C)cc7)c(c7c(Oc8ccc(C(C)(C)C)cc8)cc(c2c37)C1=O)c4c56` had an absorption maximum (in ClCCl) of 626 nm.

Under “in ClCCl”, `CCCCn1c(-c2ccc(-c3nnc(-c4ccc(-c5nc6c7ccccc7c7ccccc7c6n5CCCC)cc4)o3)cc2)nc2c3ccccc3c3ccccc3c21` came in with an absorption maximum of 366 nm.

`CCCCN1C(=O)c2c(Br)c(Br)c3c4c(Br)c(Br)c5c6c(c(Br)c(Br)c(c7c(Br)c(Br)c(c2c37)C1=O)c64)C(=O)N(CCCC)C5=O`: the absorption maximum (in ClC(Cl)Cl) is on record as 538 nm.

Regarding `COc1cc2c(cc1C=C(C#N)C#N)c1ccccc1n2C`, the absorption maximum reads like this: (in C1CCOC1) 423 nm; (in CC#N) 422 nm; (in CCOC(C)=O) 420 nm; (in CN(C)C=O) 428 nm; (in CO) 425 nm; (in CS(C)=O) 427 nm. The same compound showed an absorption maximum (in Cc1ccccc1) of 425 nm, an absorption maximum (in ClC(Cl)Cl) of 430 nm and an absorption maximum (in ClCCl) of 427 nm.

The compound `CC1=c2cc3c(C)c4n(c3cc2=[N+]2C1=Cc1c3ccccc3c(C)n1[B-]2(F)F)[B-](F)(F)[N+]1=C(C)c2ccccc2C1=C4` showed an absorption maximum (in ClC(Cl)Cl) of 775 nm.

Consider `CCCCCCCCCCCCN1C(=O)c2c(c3ccc4cc(-c5ccc(C(F)(F)F)cc5)c(OC)cc4c3c3c2ccc2cc(-c4ccc(C(F)(F)F)cc4)c(OC)cc23)C1=O`, for which the absorption maximum (in ClCCl) is listed as 427 nm.

Regarding `CCN(CC)c1ccc2cc(-c3cn4cc(OC)ccc4n3)c(=O)oc2c1`, for the setting “in ClC(Cl)Cl”, the absorption maximum stood at 434 nm.

Compound `COc1ccc(-c2csc(/C(C#N)=C/c3ccc(Cl)cc3)n2)cc1` registered an absorption maximum (in CC#N) of 376 nm.

In turn, `COc1cc(OC)cc(C2=[O+][B-](F)(F)OC(c3ccc4ccccc4c3)=C2)c1` had an absorption maximum (in ClCCl) of 402 nm.

As for `COc1ccc(N2c3c(sc4ccccc34)Sc3sc4ccccc4c32)cc1`, the absorption maximum (in ClCCl) is 309 nm.

Regarding `CCOC(=O)/C(C#N)=C\c1cn(-c2ccccc2)nc1-c1ccccc1`, the absorption maximum reads like this: (in C1CCOC1) 347 nm; (in C1COCCO1) 348 nm; (in CCO) 347 nm; (in CCOC(C)=O) 346 nm; (in CN(C)C=O) 347 nm; (in CO) 344 nm. For the same compound, the absorption maximum runs as follows: (in CS(C)=O) 349 nm; (in Cc1ccccc1) 353 nm; (in ClC(Cl)Cl) 351 nm; (in ClCCl) 348 nm.

As to `COc1ccc(C#Cc2ccc(C#Cc3ccc(P(=O)(c4ccc(C#Cc5ccc(C#Cc6ccc(OC)cc6)cc5)cc4)c4ccc(C#Cc5ccc(C#Cc6ccc(OC)cc6)cc5)cc4)cc3)cc2)cc1`, the absorption maximum reads like this: (in C1CCCCC1) 335 nm; (in C1COCCO1) 336 nm; (in CC#N) 334 nm; (in CCO) 336 nm; (in CS(C)=O) 338 nm; (in ClC(Cl)Cl) 338 nm. Also, the absorption maximum (in ClCCl) is 338 nm.

For the compound `Cc1cc(C)c(B(c2c(C)cc(C)cc2C)c2cc3cc(N(C)C)c4ccccc4c3c3c2ccc2ccccc23)c(C)c1`, the absorption maximum (in C1CCCCC1) is listed as 430 nm; the absorption maximum (in C1CCOC1) came out at 431 nm; the absorption maximum (in CC#N) came out at 429 nm; the absorption maximum (in ClC(Cl)Cl) is 431 nm; the absorption maximum (in c1ccccc1) amounted to 433 nm.

Take `Cc1c2ccccc2c(C2=C3C=CC=[N+]3[B-](F)(F)n3cccc32)c2ccccc12`: the absorption maximum by setting is: (in CC#N) 502 nm; (in CCCCCC) 504 nm; (in CCO) 503 nm; (in CN(C)C=O) 506 nm; (in Cc1ccccc1) 508 nm; (in ClCCl) 506 nm.

For the compound `CC1=CC(C)=[N+]2C1=C(c1ccc3cccnc3n1)c1c(C)cc(C)n1[B-]2(F)F`, the absorption maximum is, setting by setting: (in CC#N) 501 nm; (in CCCCCC) 506 nm; (in CO) 503 nm; (in ClC(Cl)Cl) 509 nm; (in ClCCl) 506 nm.

For the compound `N#Cc1ccc2c(c1)C1(c3cc(C#N)ccc3-2)c2ccccc2N(c2ccccc2)c2ccccc21`, the absorption maximum (in Cc1ccccc1) is on record as 330.33 nm.

With `CCCCCCC(CCCCCC)N1C(=O)c2cccc3c(-c4ccc(OC)cc4)ccc(c23)C1=O`, the absorption maximum is, setting by setting: (in CCCCCC) 354.2 nm; (in CCCCCCCCCCCCCC) 356.4 nm; (in CCCCCCCCCCCO) 365.6 nm; (in CCCCO) 366.2 nm; (in CN(C)C=O) 368 nm; (in Cc1ccccc1) 364.2 nm. Moreover, the absorption maximum (in ClC(Cl)Cl) amounted to 364.8 nm.

For the compound `O=c1cc(C(F)(F)F)c2cc3c4c(c2o1)CCCN4CCC3`, the absorption maximum (in C1CCCCC1) stood at 393 nm; the absorption maximum (in CC#N) worked out at 418 nm; the absorption maximum (in CCO) was determined as 421 nm; the absorption maximum (in CCOC(C)=O) was determined as 409 nm; the absorption maximum (in OCC(O)CO) amounted to 434 nm.

With `O=C1c2ccccc2C2=Nc3cccc4cccc(c34)N12`, where the note is “in ClCCl”, the absorption maximum is recorded as 448 nm.

`CN(C)c1ccc(C#Cc2ccc(-c3nc(C#N)c(C#N)n3C)cc2)cc1` had an absorption maximum (in C1CCCCC1) of 372 nm, an absorption maximum (in CC#N) of 357 nm, an absorption maximum (in CO) of 356 nm and an absorption maximum (in ClC(Cl)Cl) of 369 nm.

`CN1/C(=C\C=C\C2=C3C=CC(c4ccccc4)=[N+]3[B-](F)(F)n3c2ccc3-c2ccccc2)C(C)(C)c2ccccc21` showed an absorption maximum (in CC#N) of 671 nm.

In turn, `c1ccc(-c2nc3c4ccccc4c4ccccc4c3n2-c2ccccc2)cc1` returned an absorption maximum (in C1CCOC1) of 362 nm.

`CC1=C(C)c2cccc3c2c(cc2nc4ccccc4nc23)O1` had an absorption maximum (in ClCCl) of 497 nm.

Consider `CN(C)c1ccc(C2=Nc3scc(-c4ccc([N+](=O)[O-])cc4)[n+]3[B-](F)(F)O2)cc1`, for which the absorption maximum (in C1CCOC1) is given as 412 nm, the absorption maximum (in CC#N) turned out to be 411 nm, the absorption maximum (in Cc1ccccc1) came to 415 nm and the absorption maximum (in ClCCl) was found to be 417 nm.

As to `O=c1oc2ccccc2cc1/C=C/c1ccccc1`, the absorption maximum (in CC#N) turned out to be 351 nm.

Where the note is “in ClCCl”, `CCCCC(CC)Cn1c2cc(C#N)ccc2c2ccc(C#Cc3cc(C#Cc4ccc5c6ccc(C#N)cc6n(CC(CC)CCCC)c5c4)c4ccc5c(C#Cc6ccc7c8ccc(C#N)cc8n(CC(CC)CCCC)c7c6)cc(C#Cc6ccc7c8ccc(C#N)cc8n(CC(CC)CCCC)c7c6)c6ccc3c4c65)cc21` (configuration not stated) displayed an absorption maximum of 467 nm.

Take `COc1ccc(N(c2ccc(OC)cc2)c2ccc3c(c2)C2(c4cc(N(c5ccc(OC)cc5)c5ccc(OC)cc5)ccc4C=C3)c3ccccc3-c3ccccc32)cc1`: the absorption maximum (in ClCCl) was 414 nm.
